Like-named read-outs stand apart in the source and are kept apart here.
How the values were obtained:
human NK1 receptor = human NK1 receptor (Homo sapiens, UniProt P25103); assay: NK1 receptor binding, [3H]substance P displacement, CHO cell membranes
[1] = molecular target: T1, Recombinant human NK3 (hNK3) receptor (Homo sapiens, UniProt P29371); assay: NK3 receptor binding, [3H]SR142801 displacement, membrane preparations
T1 construct: expressed in transfected cells
T1 sequence (P29371 1-465): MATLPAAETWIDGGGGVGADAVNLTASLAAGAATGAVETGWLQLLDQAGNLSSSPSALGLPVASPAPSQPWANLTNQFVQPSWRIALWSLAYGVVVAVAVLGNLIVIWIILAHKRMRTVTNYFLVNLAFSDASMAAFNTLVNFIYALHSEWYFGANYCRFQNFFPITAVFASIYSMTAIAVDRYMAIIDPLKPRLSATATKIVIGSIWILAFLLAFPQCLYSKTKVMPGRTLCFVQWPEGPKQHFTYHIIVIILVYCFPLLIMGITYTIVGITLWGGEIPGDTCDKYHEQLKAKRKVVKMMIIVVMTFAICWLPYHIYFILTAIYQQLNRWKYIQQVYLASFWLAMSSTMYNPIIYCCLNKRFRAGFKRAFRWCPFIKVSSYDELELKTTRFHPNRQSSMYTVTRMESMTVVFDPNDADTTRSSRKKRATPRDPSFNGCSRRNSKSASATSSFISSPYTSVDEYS
Outline: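 Room-temperature, 90-min filtration binding assay using about 2.5 μg recombinant receptor membranes per well; separation on polyethyleneimine-treated glass-fibre (GF/C) filters and liquid scintillation read-out, with 10 μM SB222200 for nonspecific binding.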

[2] = first value of the cell pKi NK1/NK3, human NK1 receptor, [3H]substance P
[3] = second value of the cell pKi NK1/NK3, hNK3 receptor, [3H]SR142801
[4] = first value of the cell NK1/NK3, read-out: pKi NK1 (converted)
[5] = second value of the cell NK1/NK3, read-out: pKi NK3 (converted)

human NK1 receptor, sequence (P25103 whole entry): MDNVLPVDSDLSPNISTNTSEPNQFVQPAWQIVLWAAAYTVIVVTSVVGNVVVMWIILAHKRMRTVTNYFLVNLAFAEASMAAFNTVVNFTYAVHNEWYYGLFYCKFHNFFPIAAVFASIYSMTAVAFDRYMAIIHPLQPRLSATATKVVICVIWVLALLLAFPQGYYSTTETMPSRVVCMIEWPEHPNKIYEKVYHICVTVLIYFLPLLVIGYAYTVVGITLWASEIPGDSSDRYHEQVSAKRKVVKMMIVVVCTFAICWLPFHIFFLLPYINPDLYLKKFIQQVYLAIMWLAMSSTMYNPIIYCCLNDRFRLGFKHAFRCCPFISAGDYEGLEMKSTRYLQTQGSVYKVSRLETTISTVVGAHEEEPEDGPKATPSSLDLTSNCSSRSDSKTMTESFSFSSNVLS

Ki (human NK1 receptor; [2]) [nM]	Ki [1, 3] [nM]	Ki (human NK1 receptor; [4]) [nM]	Ki [1, 5] [nM]	SMILES
0.646	4.79			Cc1cc(F)ccc1-c1cc(NC[C@H](C)O)ncc1N(C)C(=O)C(C)(C)c1cc(C(F)(F)F)cc(C(F)(F)F)c1 [Example 77, (S)-2-(3,5-Bis-trifluoromethyl-phenyl)-N-[4-(4-fluoro-2-methyl-phenyl)-6-(2-hydroxy-propylamino)-pyridin-3-yl]-N-methyl-isobutyramide]
0.603	8.71			CN(C(=O)C(C)(C)c1cc(C(F)(F)F)cc(C(F)(F)F)c1)c1cnc(N2CC[C@H](O)C2)cc1-c1ccccc1Cl [Example 46, (S)-2-(3,5-Bis-trifluoromethyl-phenyl)-N-[4-(2-chloro-phenyl)-6-(3-hydroxy-pyrrolidin-1-yl)-pyridin-3-yl]-N-methyl-isobutyramide]
1.82	20			CC(=O)N[C@@H]1CCN(c2cc(-c3ccc(F)cc3C)c(N(C)C(=O)C(C)(C)c3cc(C(F)(F)F)cc(C(F)(F)F)c3)cn2)C1 [Example 100, (R)-N-[6-(3-Acetylamino-pyrrolidin-1-yl)-4-(4-fluoro-2-methyl-phenyl)-pyridin-3-yl]-2-(3,5-bis-trifluoromethyl-phenyl)-N-methyl-isobutyramide]
1.78	9.55			Cc1cc(F)ccc1-c1cc(N2CCC[C@H]2C(C)(C)O)ncc1N(C)C(=O)C(C)(C)c1cc(C(F)(F)F)cc(C(F)(F)F)c1 [Example 159, (S)-2-(3,5-Bis-trifluoromethyl-phenyl)-N-{4-(4-fluoro-2-methyl-phenyl)-6-[2-(1-hydroxy-1-methyl-ethyl)-pyrrolidin-1-yl]-pyridin-3-yl}-N-methyl-isobutyramide]
1.12	1.38			Cc1ccccc1-c1cc(N2C[C@H](O)C[C@H]2CO)ncc1N(C)C(=O)C(C)(C)c1cc(Cl)cc(Cl)c1 [Example 12, (2S,4R)-2-(3,5-Dichloro-phenyl)-N-[6-(4-hydroxy-2-hydroxymethyl-pyrrolidin-1-yl)-4-o-tolyl-pyridin-3-yl]-N-methyl-isobutyramide]
1.48	1.29			CN(C(=O)C(C)(C)c1cc(C(F)(F)F)cc(C(F)(F)F)c1)c1cnc(N2CCC(S(C)(=O)=O)C2)cc1-c1ccccc1Cl (racemic) [Example 66, (RS)-2-(3,5-Bis-trifluoromethyl-phenyl)-N-[4-(2-chloro-phenyl)-6-(3-methanesulfonyl-pyrrolidin-1-yl)-pyridin-3-yl]-N-methyl-isobutyramide]
		3.31	7.76	Cc1ncccc1-c1cc(N(CCO)CCO)ncc1N(C)C(=O)C(C)(C)c1cc(C(F)(F)F)cc(C(F)(F)F)c1 [Example 291, N-{6′-[Bis-(2-hydroxy-ethyl)-amino]-2-methyl-[3,4′]bipyridinyl-3′-yl}-2-(3,5-bis-trifluoromethyl-phenyl)-N-methyl-isobutyramide]
		1.02	7.76	CN(C(=O)C(C)(C)c1cc(C(F)(F)F)cc(C(F)(F)F)c1)c1cnc(N2C[C@@H](O)C[C@H]2CO)cc1-c1ccc(F)cc1F [Example 237, (2S,4S)-2-(3,5-Bis-trifluoromethyl-phenyl)-N-[4-(2,4-difluoro-phenyl)-6-(4-hydroxy-2-hydroxymethyl-pyrrolidin-1-yl)-pyridin-3-yl]-N-methyl-isobutyramide]
1.32	0.977			CN(C(=O)C(C)(C)c1cc(C(F)(F)F)cc(C(F)(F)F)c1)c1cnc(N(CCO)CCCO)cc1-c1ccccc1Cl [Example 150, 2-(3,5-Bis-trifluoromethyl-phenyl)-N-{4-(2-chloro-phenyl)-6-[(2-hydroxy-ethyl)-(3-hydroxy-propyl)-amino]-pyridin-3-yl}-N-methyl-isobutyramide]
3.02	34.7			Cc1ccccc1-c1cc(N2CC[C@@H](O)[C@@H](CO)C2)ncc1N(C)C(=O)C(C)(C)c1cc(C(F)(F)F)cc(C(F)(F)F)c1 (racemic) [Example 192, (3RS,4RS)-2-(3,5-Bis-trifluoromethyl-phenyl)-N-(4-hydroxy-3-hydroxymethyl-4′-o-tolyl-3,4,5,6-tetrahydro-2H-[1,2′]bipyridinyl-5′-yl)-N-methyl-isobutyramide]
1.41	0.871			CN(C(=O)C(C)(C)c1cc(Cl)cc(Cl)c1)c1cnc(N2C[C@H](O)C[C@H]2CO)cc1-c1ccccc1Cl [Example 3, (2S,4R)-N-[4-(2-Chloro-phenyl)-6-(4-hydroxy-2-hydroxymethyl-pyrrolidin-1-yl)-pyridin-3-yl]-2-(3,5-dichloro-phenyl)-N-methyl-isobutyramide]
1.91	1.86			Cc1ccccc1-c1cc(NC[C@@H](C)O)ncc1N(C)C(=O)C(C)(C)c1cc(C(F)(F)F)cc(C(F)(F)F)c1 [Example 173, (R)-2-(3,5-Bis-trifluoromethyl-phenyl)-N-[6-(2-hydroxy-propylamino)-4-o-tolyl-pyridin-3-yl]-N-methyl-isobutyramide]
0.692	3.47			CN(C(=O)C(C)(C)c1cc(C(F)(F)F)cc(C(F)(F)F)c1)c1cnc(N2CC(O)C2)cc1-c1ccccc1Cl [Example 98, 2-(3,5-Bis-trifluoromethyl-phenyl)-N-[4-(2-chloro-phenyl)-6-(3-hydroxy-azetidin-1-yl)-pyridin-3-yl]-N-methyl-isobutyramide]
		1.78	1.78	CN(C(=O)C(C)(C)c1cc(C(F)(F)F)cc(C(F)(F)F)c1)c1cnc(N2C[C@@H](O)C[C@H]2CO)cc1-c1ccc(Cl)cc1Cl [Example 236, (2S,4S)-2-(3,5-Bis-trifluoromethyl-phenyl)-N-[4-(2,4-dichloro-phenyl)-6-(4-hydroxy-2-hydroxymethyl-pyrrolidin-1-yl)-pyridin-3-yl]-N-methyl-isobutyramide]
1.62	3.24			CN(C(=O)C(C)(C)c1cc(C(F)(F)F)cc(C(F)(F)F)c1)c1cnc(N2C[C@H](O)C[C@@H](O)C2)cc1-c1ccccc1Cl [Example 180, (3R,5R)-2-(3,5-Bis-trifluoromethyl-phenyl)-N-[4′-(2-chloro-phenyl)-3,5-dihydroxy-3,4,5,6-tetrahydro-2H-[1,2′]bipyridinyl-5′-yl]-N-methyl-isobutyramide]
		2	10	Cc1cc(F)ccc1-c1cc(N2C[C@H](O)C[C@@H]2CO)ncc1N(C)C(=O)C(C)(C)c1cc(C(F)(F)F)cc(C(F)(F)F)c1 [Example 258, (2R,4R)-2-(3,5-Bis-trifluoromethyl-phenyl)-N-[4-(4-fluoro-2-methyl-phenyl)-6-(4-hydroxy-2-hydroxymethyl-pyrrolidin-1-yl)-pyridin-3-yl]-N-methyl-isobutyramide]
3.72	3.55			COc1cc(Cl)cc(C(C)(C)C(=O)N(C)c2cnc(N3CCC[C@H]3CO)cc2-c2ccc(F)cc2C)c1 [Example 30, (S)-2-(3-Chloro-5-methoxy-phenyl)-N-[4-(4-fluoro-2-methyl-phenyl)-6-(2-hydroxymethyl-pyrrolidin-1-yl)-pyridin-3-yl]-N-methyl-isobutyramide]
		0.813	2.51	CN(C(=O)C(C)(C)c1cc(C(F)(F)F)cc(C(F)(F)F)c1)c1cnc(N2C[C@H](O)C[C@H]2CO)cc1-c1ccc(F)c(Cl)c1 [Example 212, (2S,4R)-2-(3,5-Bis-trifluoromethyl-phenyl)-N-[4-(3-chloro-4-fluoro-phenyl)-6-(4-hydroxy-2-hydroxymethyl-pyrrolidin-1-yl)-pyridin-3-yl]-N-methyl-isobutyramide]
		0.977	3.09	CN(C(=O)C(C)(C)c1cc(C(F)(F)F)cc(C(F)(F)F)c1)c1cnc(N2C[C@@H](O)C[C@H]2CO)cc1-c1cccnc1Cl [Example 254, (2S,4S)-2-(3,5-Bis-trifluoromethyl-phenyl)-N-[2-chloro-6′-(4-hydroxy-2-hydroxymethyl-pyrrolidin-1-yl)-[3,4′]bipyridinyl-3′-yl]-N-methyl-isobutyramide]
1.29	2.57			Cc1cc(F)ccc1-c1cc(NC(CO)CO)ncc1N(C)C(=O)C(C)(C)c1cc(C(F)(F)F)cc(C(F)(F)F)c1 [Example 142, 2-(3,5-bis-trifluoromethyl-phenyl)-N-[4-(4-fluoro-2-methyl-phenyl)-6-(2-hydroxy-1-hydroxymethyl-ethylamino)-pyridin-3-yl]-N-methyl-isobutyramide]
1.78	1.1			Cc1cc(F)ccc1-c1cc(N2[C@H](CO)CC[C@H]2CO)ncc1N(C)C(=O)C(C)(C)c1cc(C(F)(F)F)cc(C(F)(F)F)c1 [Example 198, (2S,5S)-N-[6-(2,5-Bis-hydroxymethyl-pyrrolidin-1-yl)-4-(4-fluoro-2-methyl-phenyl)-pyridin-3-yl]-2-(3,5-bis-trifluoromethyl-phenyl)-N-methyl-isobutyramide]
		1.48	2.45	CN(C(=O)C(C)(C)c1cc(C(F)(F)F)cc(C(F)(F)F)c1)c1cnc(N2CC[C@H](O)[C@H]2CO)cc1-c1cc(F)ccc1F [Example 277, (2R,3S)-2-(3,5-Bis-trifluoromethyl-phenyl)-N-[4-(2,5-difluoro-phenyl)-6-(3-hydroxy-2-hydroxymethyl-pyrrolidin-1-yl)-pyridin-3-yl]-N-methyl-isobutyramide]

Source: patent US8404708B2, “Dual NK1/NK3 receptor antagonists” (Hoffmann-La Roche Inc., priority 2004, dated 2013)
